According to paper PMC9490060, “Synthesis and evaluation of anticancer activity of quillaic acid derivatives: A cell cycle arrest and apoptosis inducer through NF-κB and MAPK pathways” (Frontiers in Chemistry, 2022):

Tests used:
[1] = system: BEL7402 (human hepatocellular carcinoma cell line); assay: MTT anti-proliferative assay, BEL7402; format: cell-based; details: means ± SD, n = 3
Method in brief: (§1)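 Cells seeded at 1 × 10^4–1.2 × 10^4 per well were allowed to adhere 24 h, then exposed 48 h at 37 °C, 5% CO2 to compound at 1.25, 2.5, 5 and 10 μM (DMSO ≤0.1%). MCF-7 and HepG2 were grown in DMEM, HCT116 and BEL7402 in RPMI 1640, each with 10% FBS. MTT (final 2 mg/ml) was added for 4 h; formazan was dissolved in DMSO and read at 492 nm.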

[2] = system: HepG2 (human hepatocellular carcinoma cell line); assay: MTT anti-proliferative assay, HepG2; format: cell-based; details: means ± SD, n = 3
Method in brief: as §1

[3] = system: L02 (human normal liver cells); assay: Cytotoxicity against normal cell line L02; format: cell-based
Description: The lack of selectivity between normal and cancer cells is one of the main limitations of antitumor drugs ([Dy and Adjei, 2013]). Therefore, we evaluated the cytotoxicity of compounds B2, and E in normal cell lines L02 (human normal liver cells) to determine the selectivity index (ratio of cytotoxicity in L02 cells compared to that in cancer cells). […] Therefore, this compound was chosen for further biological studies.
The propidium iodide (PI) and Annexin V-FITC apoptosis detection kit were purchased from Invitrogen (Eugene, OR, United States). 3-(4,5-Dimethylthiazol-2-yl)-2,5-diphenyl-2H-tetrazolium bromide (MTT) was purchased from Sigma-Aldrich Co. (St. Louis, MO, United States). All human cell lines were used in this study, colorectal cancer cell HCT116, colorectal cancer cell SW620, breast cancer cell MCF-7, liver hepatocellular carcinoma cell BEL7402, liver hepatocellular carcinoma HepG2 and normal liver cell L02 were initially purchased from American Type Culture Collection (ATCC, Manassas, VA, United States). RPMI-1640 media, Dulbecco’s modified Eagle’s medium (DMEM), and foetal bovine serum (FBS) were provided from Gibco Company (Grand Island, NY, United States). Cell line MCF-7 and HepG2 were cultivated in DMEM containing 10% (v/v) heat-inactivated FBS, 100 units/ml penicillin and […] streptomycin (Grand Island, NY, United States). Cell lines HCT116, BEL7402, SW620, and L02 were cultivated in RPMI 1640 medium containing 10% (v/v) heat-inactivated FBS, 100 units/ml penicillin, and […] streptomycin. The cells were incubated at 37°C under a 5% CO2 and 90% relative humidity (RH) atmosphere.
Stock solutions were prepared by diluting target compounds in DMSO at concentrations (1.25, 2.5, 5, and 10 mM). The stock solution was then diluted (1.25, 2.5, 5, and 10 μM) with culture medium, and the concentration of DMSO was controlled not to exceed 0.1%.
Place the cells in a 96-well plate at an appropriate density to ensure exponential growth (1 × 10^4–1.2×10^4 cells per well) throughout the experiment, and then allow the cells to adhere for 24 h. The cells were then treated with continuous concentrations of each compound (1.25, 2.5, 5, and 10 μM) for 48 h. After 48 h of incubation, 15 μl of MTT solution was added to each well, and the final concentration was 2 mg/ml. Then incubate for another 4 h. After incubation, remove the MTT solution and add […] of DMSO to each well for staining. Shake vigorously for 10 min at room temperature to ensure complete dissolution. The optical density (OD) was read on a microplate reader (ELx 800, BioTek, Highland Park, Winooski, VT, United States) with a wavelength of 492 nm, and then the data was analyzed.

HCT116 cells = assay: Cell cycle analysis by flow cytometry; format: cell-based, human; details: HCT116, 30 μM, 24 h; control 53.9
Protocol: Inoculate HCT116 cells in a 6-well plate (5.0 × 10^5 cells per well) and incubate at 37°C for 24 h. The exponentially growing cells were then incubated with compound E at 10 and 30 μM. After 24 h, untreated cells (control) or cells treated with compound E were centrifuged at 1,000 rpm for 15 min, and then fixed in 70% ethanol at […] for at least 24 h. The cells were then resuspended in phosphate buffered saline (PBS) containing 0.1 mg/ml RNase A and 5 mg/ml PI. The DNA content of cells used for cell cycle distribution analysis was measured by flow cytometry, and analyzed using FACSalibur flow cytometer and Cell Quest software (Becton-Dickinson, Franklin Lakes, NJ, United States).

NF-κB p65 = assay: Western blot, NF-κB signaling pathway: NF-κB p65; format: cell-based, human; details: HCT116, 2.5, 5 and 10 μM, 24 h
Description: The NF-κB pathway plays an important role in a variety of cellular functions, including cell growth, apoptosis, and tumorigenesis ([Hwang et al., 2012]). Interfering with NF-κB signaling can inhibit tumor cell proliferation and metastasis ([Yenmis et al., 2021]). Therefore, NF-κB inhibitors are considered as potential anticancer drugs ([Wang et al., 2017]).
FIGURE 8 Effect of compound E on NF-κB signaling pathway in HCT116 cells. Cells were pretreated with the various concentrations of compound E (2.5, 5 and 10 μM) for 24 h. The expression of phospho-NF-κB p65, NF-κB p65, phospho-IκB, IκB were analyzed by Western blot. ***p < 0.001, **p < 0.01, *p < 0.05 vs. control group. The error bars represent the mean ± SD for three independent experiments.
HCT116 cells were cultured with different concentrations of compound E for 24 h. Then, the floating cells were collected and washed twice with ice-cold PBS. Add cold RIPA buffer. After the cells were lysed on ice for 20 min, the lysate was centrifuged at 12,000 rpm for 15 min at 4°C. The BCA method determines the protein concentration. Separated by SDS/PAGE electrophoresis and transferred to a nitrocellulose filter membrane for Western blot analysis. The membrane was blocked with PBS containing 5% skim milk at room temperature for 2 h. […] The protein is detected by electrochemiluminescence (Bio-Rad, CA, United State).

[4] = Stability under pharmacological experimental conditions (RPMI 1640 medium, liquid phase detection); format: physicochemical
Protocol: Experimental method: Samples A-E were prepared and detected by liquid phase. Details are as follows.
A: The purity of compound E was detected by liquid phase, and the peak time of compound E was judged.
B: Liquid detection RPMI 1640 medium
C: Compound E was dissolved in the RPMI 1640 medium and detected by liquid phase.
D: Compound E was dissolved in the RPMI 1640 medium and placed in the incubator for 24 hours before detection by liquid phase.
E: Compound E was dissolved in the RPMI 1640 medium and placed in the incubator for 48 hours before detection by liquid phase.

IC50 values BEL7402 ([1]; 48 h incubation): strong activity
IC50 ([1]; Homo sapiens, Bel-7402, 48 h incubation): 6.89 ± 1.69 µM
IC50 values HepG2 ([2]; 48 h incubation): strong activity
IC50 ([2]; Homo sapiens, HepG2, 48 h incubation): 8.89 ± 2.24 µM
content of compound E (HPLC peak) ([4]; after 24 hours in incubator): 20.495%
content of compound E (HPLC peak) ([4]; after 48 hours in incubator): 19.557%
content of compound E (HPLC peak) ([4]; check directly/0 hours): 20.461%
stability under pharmacological experimental conditions ([4]; incubator, up to 48 hours): high stability
melting point: 196 to 198 °C
SMILES: CC1(C)CC[C@]2(C(=O)OCCn3nnnc3-c3ccccc3)[C@H](O)C[C@]3(C)C(=CC[C@@H]4[C@@]5(C)CC[C@H](O)[C@@](C)(C=O)[C@@H]5CC[C@]43C)[C@@H]2C1 [Compound E, 2-(5-phenyl-1H-tetrazol-1-yl)ethyl (4aR,5R,6aS,6bR,8aR,9S,10S,12aR,12bR,14bS)-9-formyl-5,10-dihydroxy-2,2,6a,6b,9,12a-hexamethyl-1,3,4,5,6,6a,6b,7,8,8a,9,10,11,12,12a,12b,13,14b-octadecahydropicene-4a (2H)-carboxylate]
IC50 ([3]; Homo sapiens, normal cell line L02): > 10 µM
Selectivity index BEL7402 ([3]; IC50 on normal cells (L02)/IC50 on tumour cells (BEL7402)): > 1.45
Selectivity index HCT116 ([3]; IC50 on normal cells (L02)/IC50 on tumour cells (HCT116)): > 4.06
Selectivity index HepG2 ([3]; IC50 on normal cells (L02)/IC50 on tumour cells (HepG2)): > 1.12
Selectivity index SW620 ([3]; IC50 on normal cells (L02)/IC50 on tumour cells (SW620)): > 2.13
%G1 (HCT116 cells): 81.2%
effect on NF-κB p65 (NF-κB p65): no inhibitory effect
